The values that follow come from paper PMC8224453, “A New PqsR Inverse Agonist Potentiates Tobramycin Efficacy to Eradicate Pseudomonas aeruginosa Biofilms” (Advanced Science, 2021).

Each structure is given as a SMILES string. Values after ≈ are worked out from the molar mass of the structure shown. Values joined by “and” are separate entries in the source; they are usually repeats but may differ in a detail not shown here. Identical values can stand only once. Like-named read-outs stand apart in the source and are kept apart here.

Series [1] in a line: Kinetic turbidimetric solubility assay. Particulars: PBS; for solubility kinetic at 5 min: aqueous buffer, kinetic from dmso stock, read-out: Kinetic solubility S kin. It counts as physicochemical. Here is the method: 5.4. Kinetic Turbidimetric Solubility Assay
The desired compounds were sequentially diluted in DMSO in a 96-well plate. A 3 µL of each well were transferred into another three 96-well plates, followed by addition of 147 µL of PBS. Plates were shaken for 5 min at 600 rpm at room temperature (r.t.), and the absorbance at 620 nm was measured. Absorbance values were normalized by blank […]
subtraction and plotted using GraphPad Prism 8.4.2 (GraphPad Software, San Diego, CA, […]

Series [2] has as its target T1, hERG channel (Homo sapiens, UniProt Q12809).
T1 construct: Cyprotex (contract assay)
Description: hERG functional patch-clamp inhibition assay. The class given is cell-based. Here is the method: 5.2. CYP and hERG inhibition
Assessment of in vitro drug safety regarding Cytochrom P450 (CYP) inhibition and inhibiton of human ether-à-go-go related gene (hERG) channel with a functional (patch-clamp-based) assay were performed at Cyprotex. Detailed information about the assays can be found in: https://www.cyprotex.com/admepk/in-vitro-metabolism/cytochrome-p450-inhibition, and […]
On the technique in general: The hERG channel carries a current that helps repolarise heart muscle cells.

For series [3], the target named is T2, 5-HT2A (Homo sapiens, UniProt P28223).
T2 construct: Eurofins Discovery (SafetyScreen44 Panel, Cerep) P270
Description: CEREP off-target panel, agonist radioligand. The class given is binding. Conditions: @10µM. Here is the method: (§1) 5. In vitro ADME/T and Safety Pharmacology
(§2) 5.1. CEREP off-targets assay
(§3) Experiments towards possible off-target effects were conducted following Eurofins Discovery protocol. Detailed information about the assays can be found in: https://www.eurofinsdiscoveryservices.com/catalogmanagement/viewitem/SafetyScreen44- […]
(§4) Table S3. Possible CEREP off-targets. entry off-target QSI 4 QSI 17 Assay
(§5) (%binding (%binding method
(§6) (1 picture or pasted object on this page, not shown here)

The target in series [4] is T3, 5-HT2B (Homo sapiens, UniProt P41595).
T3 construct: Eurofins Discovery (SafetyScreen44 Panel, Cerep) P270
Description: CEREP off-target panel, agonist radioligand. It counts as binding. Particulars: @10µM. Here is the method:
as §1, §2, §3, §4, §5, §6

Series [5] relates to AR. Description: CEREP off-target panel, agonist radioligand. It counts as binding. Conditions: @10µM. The protocol: as §1, §2, §3, §4, §5, §6
A short description of series [6]: In vivo pharmacokinetics after intratracheal instillation. Further details: species or system mouse. Conditions: for Kp / Cmax / AUC(0-t) / MRT / Tmax / half-life / CL/F / Vd/F / AUC: male, CD1, mouse, inhaled or intranasal; for Kp: BALF and plasma, read-out: AUC ratio BALF/Plasma; for Vd/F: read-out: Vz/F_obs. Here is the method:
6.2. PK Sample Preparation and Analysis
Groups of male CD1 mice (25-30 g, Charles River UK) were housed in groups of up to 6 and maintained under a 12 h light/dark cycle with free access to food and water. Temperature and humidity were controlled according to U.K. HO regulations. On the day of the study, mice were briefly anaesthetized with isoflurane before suspending the mouse by its upper incisors on a board held at an angle of approx. 45 degrees. Mice were then dosed intratracheally with the compound (4 or Tob) at the designated does formulated in ethanol/tyloxapol/glycerol/phosphate-buffered saline (PBS) [10:1:5:84] in a 1 mL/kg dosing volume up to a maximum of 30 µL per mouse. A laryngoscope was used to facilitate dosing.
Animals were allowed to recover before replacing into their home cages. […]
Blood samples were placed in tubes on ice containing EDTA anticoagulant. After gentle mixing, samples were centrifuged (10,000 rpm x 3 min) and two 50 μL aliquots taken into fresh tubes that were immediately frozen on dry ice. Following blood sample collection, tracheas were exposed and a small incision made. An 18 Gauge plastic tube was then inserted through the incision into the trachea and tied in place. Aliquots of 0.8 mL of sterile saline were then infused into and then withdrawn from the lungs and the collected bronchoalveolar lavage (BAL) sample placed into a tube. This process was repeated two more times, and the samples from each mouse pooled. The resulting samples were weighed and mixed, before a 1 mL aliquot was taken for analysis and frozen on dry ice.
Immediately after collecting the final BALF sample, lung samples were excised and excess tissue removed, before rinsing in saline, blotting and weighing. Samples were then snap frozen by immersion in liquid nitrogen. All samples were stored at -20 °C until sent for […]
All PK plasma samples were analyzed via HPLC-MS/MS using an Agilent 1290 Infinity II HPLC system coupled to an AB Sciex QTrap 6500plus mass spectrometer. First, a calibration curve was prepared by spiking different concentrations of compound 4 or Tob (Fa. Sigma) into plasma, homogenized lung from CD-1 mice or 0.9% sodium chloride solution as matrix for broncheoalveolar lavage fluid (BALF). The lower limits of quantification are indicated in Table S5. Caffeine was used as internal standard. In addition, quality control samples (QCs) were prepared for 4 and Tob in plasma, homogenized lung and 0.9% sodium chloride […]
The following extraction procedure was used for 4: plasma: 7.5 µL of a plasma sample (calibration samples, QCs or PK samples) was extracted with 37.5 µL of acetonitrile containing 12.5 ng/mL caffeine as internal standard for 10 min at 2000 rpm on an Eppendorf MixMate® vortex mixer. Lung: homogenized samples were diluted to 50 mg/mL lung tissue in 0.9% sodium chloride solution. A 50 µL of a lung sample (calibration samples, QCs or PK samples) was extracted with 15 µL water containing 10% formic acid and 50 µL of acetonitrile containing 12.5 ng/mL caffeine as internal standard for 10 min at 2.000 rpm on an Eppendorf MixMate® vortex mixer. BALF: 200 µL of methanol were added to 100 µL of a BALF sample (calibration samples, QCs or PK samples). Samples were concentrated in an Eppendorf concentrator until dryness at 30 °C. A 30 µL of water containing 10% formic acid

Where [7] appears, read: BALF, 0.5 mg kg^−1, mice, intratracheal, BALF, read-out: Cmax BALF.
Setting [8] is: BALF, mice, intratracheal, Figure 3B, read-out: BALF: AUC0-t.
Setting [9] is: ELF (calculated from BALF), 0.5 mg kg^−1, mice, intratracheal, ELF calculated from BALF, read-out: Cmax ELF.
Where [10] appears, read: 0.5 mg kg^−1, mice, intratracheal, BALF, read-out: AUC0-t BALF.
[11] abbreviates: 0.5 mg kg^−1, mice, intratracheal, BALF, read-out: MRT BALF.
[12] abbreviates: 0.5 mg kg^−1, mice, intratracheal, BALF, read-out: Tmax BALF.
The mark [13] stands for this setting: 0.5 mg kg^−1, mice, intratracheal, ELF calculated from BALF, read-out: AUC0-t ELF.
[14] abbreviates: 0.5 mg kg^−1, mice, intratracheal, ELF calculated from BALF, read-out: MRT ELF.
[15] abbreviates: 0.5 mg kg^−1, mice, intratracheal, ELF calculated from BALF, read-out: Tmax ELF.
Where [16] appears, read: 0.5 mg kg^−1, mice, intratracheal, ELF calculated from BALF, read-out: t1/2 ELF (converted).
The mark [17] stands for this setting: 0.5 mg kg^−1, mice, intratracheal, lung tissue, read-out: MRT lung.
Setting [18] is: 0.5 mg kg^−1, mice, intratracheal, lung tissue, read-out: Tmax lung.
Setting [19] is: 0.5 mg kg^−1, mice, intratracheal, lung tissue, read-out: t1/2 lung (converted).
Setting [20] is: 0.5 mg kg^−1, mice, intratracheal, plasma.
Setting [21] is: 0.5 mg kg^−1, mice, intratracheal, plasma, read-out: AUC0-t plasma.
Setting [22] is: 0.5 mg kg^−1, mice, intratracheal, plasma, read-out: MRT plasma.
Where [23] appears, read: 0.5 mg kg^−1, mice, intratracheal, plasma, read-out: Tmax plasma.
Where [24] appears, read: mice, intratracheal (QSI 4 0.5 mg kg^−1), plasma, read-out: t1/2 plasma (converted).
Where [25] appears, read: mice, intratracheal, BALF, read-out: t1/2 BALF (converted).
Setting [26] is: plasma, 0.5 mg kg^−1, mice, intratracheal, plasma, read-out: Cmax plasma.
The mark [27] stands for this setting: plasma, mice, intratracheal, Figure 3B, read-out: Plasma: AUC0-t.

T1 sequence (Q12809 whole entry): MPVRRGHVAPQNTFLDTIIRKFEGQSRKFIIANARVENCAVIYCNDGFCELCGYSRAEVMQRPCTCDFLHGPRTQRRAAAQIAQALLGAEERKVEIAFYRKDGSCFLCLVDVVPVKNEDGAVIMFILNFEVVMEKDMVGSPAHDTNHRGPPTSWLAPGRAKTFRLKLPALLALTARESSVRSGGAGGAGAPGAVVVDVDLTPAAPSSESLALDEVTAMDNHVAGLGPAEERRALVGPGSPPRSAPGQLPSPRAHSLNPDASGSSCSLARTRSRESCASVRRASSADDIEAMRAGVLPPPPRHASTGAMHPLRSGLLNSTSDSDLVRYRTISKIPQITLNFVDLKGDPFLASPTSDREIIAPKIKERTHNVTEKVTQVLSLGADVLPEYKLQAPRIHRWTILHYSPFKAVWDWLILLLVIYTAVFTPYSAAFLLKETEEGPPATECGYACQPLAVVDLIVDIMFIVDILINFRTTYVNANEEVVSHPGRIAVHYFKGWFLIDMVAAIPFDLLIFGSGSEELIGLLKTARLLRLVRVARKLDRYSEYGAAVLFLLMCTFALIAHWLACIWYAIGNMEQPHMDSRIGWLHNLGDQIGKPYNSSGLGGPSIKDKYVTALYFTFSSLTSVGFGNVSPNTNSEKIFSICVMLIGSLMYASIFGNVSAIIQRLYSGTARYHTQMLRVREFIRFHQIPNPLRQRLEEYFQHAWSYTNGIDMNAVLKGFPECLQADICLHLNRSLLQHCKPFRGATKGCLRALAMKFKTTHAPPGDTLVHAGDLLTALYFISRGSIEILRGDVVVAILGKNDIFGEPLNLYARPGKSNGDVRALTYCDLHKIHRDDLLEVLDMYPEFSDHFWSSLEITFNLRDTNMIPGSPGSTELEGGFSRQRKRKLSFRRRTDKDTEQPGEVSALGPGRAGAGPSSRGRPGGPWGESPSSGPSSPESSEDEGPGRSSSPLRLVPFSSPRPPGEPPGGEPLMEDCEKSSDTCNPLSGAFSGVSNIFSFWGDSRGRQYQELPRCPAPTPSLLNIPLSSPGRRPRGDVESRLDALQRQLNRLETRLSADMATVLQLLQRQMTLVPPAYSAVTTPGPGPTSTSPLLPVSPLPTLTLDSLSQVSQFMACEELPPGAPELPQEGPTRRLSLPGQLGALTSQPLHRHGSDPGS
T3 sequence (P41595 whole entry): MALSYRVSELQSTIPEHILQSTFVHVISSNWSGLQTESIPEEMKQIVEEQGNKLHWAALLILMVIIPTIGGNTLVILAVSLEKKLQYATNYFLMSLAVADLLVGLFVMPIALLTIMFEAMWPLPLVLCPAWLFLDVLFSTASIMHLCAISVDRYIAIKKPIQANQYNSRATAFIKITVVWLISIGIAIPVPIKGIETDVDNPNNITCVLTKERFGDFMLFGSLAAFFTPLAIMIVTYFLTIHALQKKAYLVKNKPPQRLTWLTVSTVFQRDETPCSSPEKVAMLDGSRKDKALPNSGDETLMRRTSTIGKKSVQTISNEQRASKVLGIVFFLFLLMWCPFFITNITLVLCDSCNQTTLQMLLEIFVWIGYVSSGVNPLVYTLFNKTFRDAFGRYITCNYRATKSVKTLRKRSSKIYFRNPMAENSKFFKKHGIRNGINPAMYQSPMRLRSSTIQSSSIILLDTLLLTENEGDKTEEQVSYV
T2 sequence (P28223 whole entry): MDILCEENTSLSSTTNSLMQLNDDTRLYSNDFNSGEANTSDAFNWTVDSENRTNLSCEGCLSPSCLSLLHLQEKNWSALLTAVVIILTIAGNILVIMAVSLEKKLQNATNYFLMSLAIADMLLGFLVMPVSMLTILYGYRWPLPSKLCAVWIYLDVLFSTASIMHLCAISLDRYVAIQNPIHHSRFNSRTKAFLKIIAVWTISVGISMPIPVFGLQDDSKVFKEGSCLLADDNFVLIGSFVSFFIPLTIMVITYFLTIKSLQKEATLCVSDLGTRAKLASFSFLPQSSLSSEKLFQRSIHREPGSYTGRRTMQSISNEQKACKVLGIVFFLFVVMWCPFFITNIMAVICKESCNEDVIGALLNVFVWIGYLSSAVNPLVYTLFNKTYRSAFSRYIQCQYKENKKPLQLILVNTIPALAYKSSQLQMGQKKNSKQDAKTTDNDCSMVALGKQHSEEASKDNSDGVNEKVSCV

In general, solubility (kinetic) refers to solubility judged after dilution from a stock solution rather than from solid. By IC50 is commonly meant the concentration at which inhibition is half-maximal. A lower IC50 goes with greater potency. As to `COc1ccc(-n2cc(CNc3ccnc(C(F)(F)F)c3)nn2)cc1Cl` [Compound 17], in series [1], the “Kinetic solubility S kin” value came to 64.1 µM and the kinetic solubility at 5 min was determined as 64 µM (≈ 24.6 µg/mL). Further, the IC50 in series [2] is over 25 µM. Further, in series [3], the “% binding, 5-HT2A” value was 22.02%. Also, the “% binding, 5-HT2B” value in series [4] is recorded as 73.79%. For the same compound, in series [5], the “% binding, AR” value is 57.04%.

In general, MRT refers to the average time that molecules of a dose stay in the body. For orientation: Tmax means the time from dosing to the highest level. The CL/F is the apparent clearance, not corrected for the fraction that reaches the circulation. `NC[C@H]1O[C@H](O[C@H]2[C@H](O)[C@@H](O[C@H]3O[C@H](CO)[C@@H](O)[C@H](N)[C@H]3O)[C@H](N)C[C@@H]2N)[C@H](N)C[C@@H]1O` [Tobramycin, tobramycin]: the Kp in series [6] (mice, intratracheal) was 3.2. The Cmax is 215 ng/mL and 460 nM in series [6] (setting [7]); 38.8 ng/mL and 83 nM in series [6] (setting [9]); 89.5 ng/mL and 191 nM in series [6] (setting [26]). In addition, the AUC(0-t) in series [6] (setting [8]) was 268 ± 27 ng·h/mL; in series [6] (setting [10]), 268 ng·h/mL and 0.57 µM·h; in series [6] (setting [13]) it was 57.5 ng·h/mL and 0.12 µM·h; in series [6] (setting [21]) it was 83.2 ng·h/mL and 0.178 µM·h; in series [6] (setting [27]), 83.2 ± 35.3 ng·h/mL. Moreover, the MRT is 84 ± 6 min in series [6] (setting [11]), 90 ± 12 min in series [6] (setting [14]), 116 min in series [6] (setting [17]) and 87 ± 72 min in series [6] (setting [22]). Also, the time of peak concentration (Tmax) in series [6] (setting [12]), in series [6] (setting [15]), in series [6] (setting [18]) and in series [6] (setting [23]) was 30 min throughout. The half-life is 33.6 ± 12 min in series [6] (setting [16]), 67.8 min in series [6] (setting [19]), 45.6 ± 48 min in series [6] (setting [24]) and 49.2 ± 6 min in series [6] (setting [25]). The CL/F in series [6] (setting [20]) amounted to 45.3 ± 26.6 mL/min/kg. Further, the Vd/F in series [6] (setting [20]) was determined as 2.25 ± 1.6 L/kg. For the same compound, the “Cmax BALF” value in series [6] (mice, intratracheal, BALF) turned out to be 215.4 ± 50 ng/mL.

`FC(F)(F)c1cc(NCc2cn(-c3ccc(Oc4ccccc4)cc3)nn2)ccn1` [Compound 4]: the solubility (kinetic) at 5 min in series [1] is 7.7 µM (≈ 3.17 µg/mL). In addition, the IC50 in series [2] is over 25 µM. The “% binding, 5-HT2A” value in series [3] is reported as 65.15%. For the same compound, the “% binding, 5-HT2B” value in series [4] was 55.25%. The “% binding, AR” value in series [5] is -10.10%. The Kp in series [6] (mice, intratracheal) was 86.9. Further, the Cmax in series [6] (setting [7]) is 3770 ng/mL and 9.2 µM; in series [6] (BALF, 0.5 mg/kg, mice, intratracheal 0.5 mg kg^−1, BALF, read-out: C max in BALF) it was 3770 ± 2660 ng/mL; in series [6] (setting [9]) it was 1290 ng/mL and 3.1 µM; in series [6] (setting [26]), 62.6 ng/mL and 151 nM; in series [6] (plasma, 0.5 mg/kg, mice, intratracheal 0.5 mg kg^−1, plasma, read-out: plasma C max), 62.6 ± 45.7 ng/mL. For the same compound, the AUC(0-t) was 4840 ± 2180 ng·h/mL in series [6] (setting [8]); 4840 ng·h/mL and 11.8 µM·h in series [6] (setting [10]); 3100 ng·h/mL and 7.5 µM·h in series [6] (setting [13]); 55.8 ng·h/mL and 0.135 µM·h in series [6] (setting [21]); 55.8 ± 21.3 ng·h/mL in series [6] (setting [27]). Further, the MRT in series [6] (setting [11]) was 94.2 ± 6 min; in series [6] (setting [14]), 96.6 ± 66 min; in series [6] (setting [17]) it was 76.2 ± 24 min; in series [6] (setting [22]), 72 ± 6 min. For the same compound, the Tmax in series [6] (setting [12]) was 30 min; in series [6] (setting [15]), 100 ± 120 min; in series [6] (setting [18]), 30 min; in series [6] (setting [23]), 30 min. In addition, the half-life in series [6] (setting [16]) is 33 ± 18 min; in series [6] (setting [19]) it was 64.8 ± 30 min; in series [6] (setting [24]), 51.6 ± 24 min; in series [6] (setting [25]) it was 43.2 ± 30 min. The CL/F in series [6] (setting [20]) is 157 ± 55.5 mL/min/kg. Moreover, the Vd/F in series [6] (setting [20]) came out at 10.5 ± 1.2 L/kg. Further, the AUC was found to be 4840 ± 2180 ng·h/mL in series [6] (mice, intratracheal 0.5 mg kg^−1, BALF, read-out: AUC0‐t BALF); 3100 ± 330 ng·h/mL in series [6] (mice, intratracheal 0.5 mg kg^−1, ELF, read-out: AUC0‐t ELF); 55.8 ± 21.3 ng·h/mL in series [6] (mice, intratracheal 0.5 mg kg^−1, plasma, read-out: AUC0‐t plasma).
